One test deals with T1, human CD38 (Homo sapiens, UniProt P28907).
T1 construct: purchased Bio-Techne GmbH AVI2404
T1 sequence (P28907 1-300): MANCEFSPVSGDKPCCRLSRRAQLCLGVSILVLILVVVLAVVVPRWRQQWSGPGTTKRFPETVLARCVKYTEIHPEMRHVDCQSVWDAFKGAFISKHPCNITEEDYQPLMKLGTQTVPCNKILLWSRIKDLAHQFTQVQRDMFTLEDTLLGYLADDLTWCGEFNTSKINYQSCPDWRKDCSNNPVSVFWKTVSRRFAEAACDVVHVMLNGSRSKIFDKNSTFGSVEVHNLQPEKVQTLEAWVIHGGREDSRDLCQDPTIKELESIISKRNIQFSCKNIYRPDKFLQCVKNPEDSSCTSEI
In words: NAD+ cyclase activity assay with human recombinant CD38 protein (ε-NAD fluorescence). Type of test: biochemical. To be noted: 1.9 nM human CD38, substrate ε-NAD, 30 min preincubation, fluorescence 300/410 nm. The essentials: (§1)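 Twelve-point threefold compound dilutions were given 30 min at room temperature with 0.6 nM mouse or 1.9 nM human CD38 before […] ε-NAD was added (pH 7.5 HEPES/sucrose/Tween buffer). The rate came from the linear-phase slope of ex 300/em 410 nm fluorescence against vehicle and no-CD38 controls.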

A further test deals with T2, mouse CD38 (Mus musculus, UniProt P56528).
T2 construct: purchased Bio-Techne GmbH 4947-AC
T2 sequence (P56528 1-304): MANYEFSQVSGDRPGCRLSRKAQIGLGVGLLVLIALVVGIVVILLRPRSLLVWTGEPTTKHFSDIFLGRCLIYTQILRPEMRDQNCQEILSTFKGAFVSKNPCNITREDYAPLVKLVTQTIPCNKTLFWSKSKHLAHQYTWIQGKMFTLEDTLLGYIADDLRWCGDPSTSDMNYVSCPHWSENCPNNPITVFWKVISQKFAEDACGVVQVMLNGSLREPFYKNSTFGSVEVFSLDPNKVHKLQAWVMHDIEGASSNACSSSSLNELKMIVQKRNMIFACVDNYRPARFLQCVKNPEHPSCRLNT
In words: NAD+ cyclase activity assay with mouse recombinant CD38 protein (ε-NAD fluorescence). Format: biochemical. Conditions: 0.6 nM mouse CD38, substrate ε-NAD, 30 min preincubation, fluorescence 300/410 nm. The essentials: as §1

Each structure is given as a SMILES string. Where only a bound is given, the exact number is not on record here.

As usually defined, the IC50 is the concentration that gives 50% inhibition. As for `CCC(O)(CN[C@H]1CC[C@H](NC(=O)c2ccc3c(c2)-c2cncn2CCO3)CC1)C(F)(F)F` (some centres unmarked) [Compound 131A, N-((1r,4r)-4-((2-Hydroxy-2-(trifluoromethyl)butyl)amino)cyclohexyl)-5,6-dihydrobenzo[f]imidazo[1,5-d][1,4]oxazepine-10-carboxamide], the values for the IC50 on human CD38 and on mouse CD38 were less than 30 nM and less than 1 nM, respectively.

With `O=C(N[C@@H]1CCS(=O)(=O)C1)c1cc(F)c2c(c1)-c1cncn1CCO2` [Compound 132A, (R)—N-(1,1-Dioxidotetrahydrothiophen-3-yl)-8-fluoro-5,6-dihydrobenzo[f]imidazo[1,5-d][1,4]oxazepine-10-carboxamide], the IC50 is less than 30 nM on human CD38 and 1 to 10 nM on mouse CD38.

On to `CC(C1CCC(NC(=O)c2ccc3c(c2)-c2cncn2CCO3)CC1)C(F)(F)F` (centres unmarked) [Compound 133A, N-(4-(1,1,1-Trifluoropropan-2-yl)cyclohexyl)-5,6-dihydrobenzo[f]imidazo[1,5-d][1,4]oxazepine-10-carboxamide], for which the IC50 on human CD38 is 30 to 100 nM; at mouse CD38 it was 1 to 10 nM.

Consider `O=C(NC1CC(F)(F)C1)c1cc(Cl)c2c(c1)-c1cncn1CCO2` [Compound 134A, 8-Chloro-N-(3,3-difluorocyclobutyl)-5,6-dihydrobenzo[f]imidazo[1,5-d][1,4]oxazepine-10-carboxamide], for which the IC50 was less than 30 nM on human CD38 and less than 1 nM at mouse CD38.

As to `O=C(NC1CC(F)(F)C1)c1cc(F)c2c(c1)-c1cncn1CCO2` [Compound 135A, N-(3,3-Difluorocyclobutyl)-8-fluoro-5,6-dihydrobenzo[f]imidazo[1,5-d][1,4]oxazepine-10-carboxamide], the IC50 on human CD38 is less than 30 nM; at mouse CD38 it was less than 1 nM.

`CC1(F)CC(NC(=O)c2ccc3c(c2)-c2cncn2CCO3)C1` (centres unmarked) [Compound 136A, N-(3-Fluoro-3-methylcyclobutyl)-5,6-dihydrobenzo[f]imidazo[1,5-d][1,4]oxazepine-10-carboxamide]: the figures for the IC50 on human CD38 and on mouse CD38 were 30 to 100 nM and 1 to 10 nM, respectively.

In the case of `O=C(NC1CCC(F)(F)CC1)c1cc(Cl)c2c(c1)-c1cncn1CCO2` [Compound 137A, 8-Chloro-N-(4,4-difluorocyclohexyl)-5,6-dihydrobenzo[f]imidazo[1,5-d][1,4]oxazepine-10-carboxamide], the values for the half-inhibitory concentration (IC50) on human CD38 and on mouse CD38 were less than 30 nM and less than 1 nM, respectively.

Turning to `CC1(F)CC(NC(=O)c2cc(F)c3c(c2)-c2cncn2CCO3)C1` (centres unmarked) [Compound 138A, 8-Fluoro-N-(3-fluoro-3-methylcyclobutyl)-5,6-dihydrobenzo[f]imidazo[1,5-d][1,4]oxazepine-10-carboxamide], the IC50 at human CD38 was less than 30 nM; on mouse CD38 it was 1 to 10 nM.

For the compound `O=C(NC1CCC1(F)F)c1ccc2c(c1)-c1cncn1CCO2` (centres unmarked) [Compound 139A, N-(2,2-Difluorocyclobutyl)-5,6-dihydrobenzo[f]imidazo[1,5-d][1,4]oxazepine-10-carboxamide], the IC50 was less than 30 nM on human CD38 and less than 1 nM on mouse CD38.

For the compound `O=C(NC1CCC1(F)F)c1cc(F)c2c(c1)-c1cncn1CCO2` (centres unmarked) [Compound 140A, N-(2,2-Difluorocyclobutyl)-8-fluoro-5,6-dihydrobenzo[f]imidazo[1,5-d][1,4]oxazepine-10-carboxamide], the figures for the IC50 on human CD38 and on mouse CD38 were less than 30 nM and less than 1 nM, respectively.

For `CC1(C)CC(NC(=O)c2ccc3c(c2)-c2cncn2CCO3)C1` [Compound 141A, N-(3,3-Dimethylcyclobutyl)-5,6-dihydrobenzo[f]imidazo[1,5-d][1,4]oxazepine-10-carboxamide], the IC50 on human CD38 is less than 30 nM; at mouse CD38, 1 to 10 nM.

For `CC1(C)CC(NC(=O)c2cc(F)c3c(c2)-c2cncn2CCO3)C1` [Compound 143A, N-(3,3-Dimethylcyclobutyl)-8-fluoro-5,6-dihydrobenzo[f]imidazo[1,5-d][1,4]oxazepine-10-carboxamide], the values for the IC50 on human CD38 and at mouse CD38 were less than 30 nM and less than 1 nM, respectively.

For `COCC1COc2cc(NC(=O)c3ccc4c(c3)-c3cncn3CCO4)cnc2O1` (centres unmarked) [Compound 144A, N-(3-(Methoxymethyl)-2,3-dihydro-[1,4]dioxino[2,3-b]pyridin-7-yl)-5,6-dihydrobenzo[f]imidazo[1,5-d][1,4]oxazepine-10-carboxamide], the figures for the IC50 on human CD38 and on mouse CD38 were less than 30 nM and 1 to 10 nM, respectively.

On to `COCC1COc2ncc(NC(=O)c3ccc4c(c3)-c3cncn3CCO4)cc2O1` (centres unmarked) [Compound 145A, N-(2-(Methoxymethyl)-2,3-dihydro-[1,4]dioxino[2,3-b]pyridin-7-yl)-5,6-dihydrobenzo[f]imidazo[1,5-d][1,4]oxazepine-10-carboxamide], for which the IC50 was less than 30 nM at human CD38 and 1 to 10 nM on mouse CD38.

`CS(=O)(=O)C1CCC(NC(=O)c2ccc3c(c2)-c2cncn2CCO3)CC1` (centres unmarked) [Compound 146A, N-(4-(Methylsulfonyl)cyclohexyl)-5,6-dihydrobenzo[f]imidazo[1,5-d][1,4]oxazepine-10-carboxamide]: the 50% inhibitory concentration (IC50) on human CD38 is 30 to 100 nM; at mouse CD38 it was 10 to 100 nM.

Regarding `O=C(N[C@H]1CC[C@H](O[C@H]2C[C@@H](F)C2)CC1)c1ccc2c(c1)-c1cncn1CCO2` [Compound 147A, N-((1r,4r)-4-((1s,3s)-3-Fluorocyclobutoxy)cyclohexyl)-5,6-dihydrobenzo[f]imidazo[1,5-d][1,4]oxazepine-10-carboxamide], the IC50 at human CD38 was less than 30 nM; at mouse CD38, 1 to 10 nM.

On to `O=C(N[C@H]1CC[C@H](O[C@H]2C[C@H](F)C2)CC1)c1ccc2c(c1)-c1cncn1CCO2` [Compound 148A, N-((1r,4r)-4-((1r,3r)-3-Fluorocyclobutoxy)cyclohexyl)-5,6-dihydrobenzo[f]imidazo[1,5-d][1,4]oxazepine-10-carboxamide], for which the IC50 is less than 30 nM on human CD38 and 1 to 10 nM on mouse CD38.

For the compound `O=C(N[C@H]1CC[C@@H](O[C@H]2C[C@@H](F)C2)CC1)c1ccc2c(c1)-c1cncn1CCO2` [Compound 149A, N-((1s,4s)-4-((1s,3s)-3-Fluorocyclobutoxy)cyclohexyl)-5,6-dihydrobenzo[f]imidazo[1,5-d][1,4]oxazepine-10-carboxamide], the IC50 on human CD38 was 100 to 1000 nM; on mouse CD38 it was 10 to 100 nM.

For the compound `O=C(N[C@H]1CC[C@@H](O[C@H]2C[C@H](F)C2)CC1)c1ccc2c(c1)-c1cncn1CCO2` [Compound 150A, N-((1s,4s)-4-((1r,3r)-3-Fluorocyclobutoxy)cyclohexyl)-5,6-dihydrobenzo[f]imidazo[1,5-d][1,4]oxazepine-10-carboxamide], the IC50 was 100 to 1000 nM at human CD38 and greater than 100 nM on mouse CD38.

Turning to `O=C(NC1CCCC(C(F)(F)F)C1)c1ccc2c(c1)-c1cncn1CCO2` (centres unmarked) [Compound 151A, N-(3-(Trifluoromethyl)cyclohexyl)-5,6-dihydrobenzo[f]imidazo[1,5-d][1,4]oxazepine-10-carboxamide], the IC50 was less than 30 nM on human CD38 and 1 to 10 nM at mouse CD38.

As to `O=C(N[C@H]1CC[C@H](OC2CC(F)(F)C2)CC1)c1ccc2c(c1)-c1cncn1CCO2` [Compound 152A, N-((1r,4r)-4-(3,3-Difluorocyclobutoxy)cyclohexyl)-5,6-dihydrobenzo[f]imidazo[1,5-d][1,4]oxazepine-10-carboxamide], the IC50 on human CD38 was less than 30 nM; at mouse CD38, 1 to 10 nM.

As to `O=C(N[C@H]1CC[C@@H](OC2CC(F)(F)C2)CC1)c1ccc2c(c1)-c1cncn1CCO2` [Compound 153A, N-((1s,4s)-4-(3,3-Difluorocyclobutoxy)cyclohexyl)-5,6-dihydrobenzo[f]imidazo[1,5-d][1,4]oxazepine-10-carboxamide], the IC50 is 100 to 1000 nM at human CD38 and 10 to 100 nM on mouse CD38.

Regarding `O=C(NC1CCC(F)(F)CC1)c1cc2c(c(F)c1F)OCCn1cncc1-2` [Compound 154A, N-(4,4-Difluorocyclohexyl)-8,9-difluoro-5,6-dihydrobenzo[f]imidazo[1,5-d][1,4]oxazepine-10-carboxamide], the IC50 on human CD38 was less than 30 nM; on mouse CD38, less than 1 nM.

`O=C(N[C@H]1CC[C@H](OCC(F)(F)F)CC1)c1cc(F)c2c(c1)-c1cncn1CCO2` [Compound 155A, 8-Fluoro-N-((1r,4r)-4-(2,2,2-trifluoroethoxy)cyclohexyl)-5,6-dihydrobenzo[f]imidazo[1,5-d][1,4]oxazepine-10-carboxamide]: the values for the IC50 at human CD38 and at mouse CD38 were less than 30 nM and less than 1 nM, respectively.

Turning to `O=C(N[C@H]1CC[C@@H](OCC(F)(F)F)CC1)c1cc(F)c2c(c1)-c1cncn1CCO2` [Compound 156A, 8-Fluoro-N-((1s,4s)-4-(2,2,2-trifluoroethoxy)cyclohexyl)-5,6-dihydrobenzo[f]imidazo[1,5-d][1,4]oxazepine-10-carboxamide], the IC50 on human CD38 was in the range of 30 to 100 nM; at mouse CD38 it was 10 to 100 nM.

Values taken from patent publication US20260138990A1, “TRICYCLIC FUSED IMIDAZOLE COMPOUNDS AS CD38 MODULATORS AND USES THEREOF” (AEOVIAN PHARMACEUTICALS, INC., priority 2023, published 2026).
